Converted amounts (≈) assume the structure as drawn. “Also recorded” adds a separate entry of the source. Like-named read-outs stand apart in the source and are kept apart here.

In one data set the test system is LAV-2ROD. The data set can be described thus: Anti-HIV activity assay, LAV-2ROD (MT-4 cells, MTT method). The class given is cell-based. The conditions noted are these: for Selectivity index (SI): CD50/ED50, LAV-2ROD; for EC50: MT4, 120 h, read-out: ED50 (50% effective dose). The procedure: (§1) Results in relation to HIV virus were obtained by the method of Pauwels et al, Journal of Virological Methods 20, 309 to 321 (1988), as follows:
(§2) MT-4 cells (2.5×10^4 /well) were infected with HIV (100 CCID50) and incubated in the presence of varying concentrations of the test compounds (added immediately after virus infection). After five days incubation at 37° C. in a CO2 incubator, the number of viable cells was assessed by the MTT (tetrazolium) method. Anti-viral activity and cytotoxicity of the compounds are expressed as ED50 (50% effective dose) and CD50 (50% cytotoxic dose), respectively. SI (selectivity index=CD50 /ED50.
(§3) These are given in Table 8 and Table 9 below in relation to HTLV-IIIB and LAV-2ROD viruses.
On the technique in general: Tetrazolium assays rely on reduction of a dye to a coloured formazan, in cell work by metabolically active cells.

Another data set can be described thus: in vitro. To be noted: human, mt-4 cells, CD50 (50% cytotoxic dose). The class given is cell-based. The procedure:
as §1, §2

Another data set deals with MT-4 cells. In words: in vitro. The class given is cell-based. The conditions noted are these: human, 120 h. The procedure: as §1, §2
In data set [1] the test system is herpes simplex virus Type I. The data set can be described thus: Inactivation of virus (30 minutes incubation, plaque assay). The conditions noted are these: for log reduction at 1 µg/mL: 1 mg/l; for log reduction at 5 µg/mL: 5 mg/l. Type of data set: cell-based, Type 1, Troisbel strain. The method, then: 1. A virus solution containing 2×10^5 pfu/ml is prepared in phosphate buffered saline (Dulbecco's A).
2. The compound to be tested is made up in Dulbecco's medium A in a suitable range of dilutions.
3. Equal volumes of the virus and drug solution are mixed together. Control solutions without drug are also used.
4. The virus and drug are incubated for an appropriate period of time, in this example, thirty minutes.
5. The numbers of active viral particles in the solution are assayed as in items 4 and 5 under A.
The results are shown below (Table 6). In the Table, the figures are concentrations of viral particles present after incubation of the virus for 30 minutes with solutions of the drugs.

Another data set concerns HTLV-IIIB. In words: Anti-HIV activity assay, HTLV-IIIB (MT-4 cells, MTT method). The class given is cell-based. The conditions noted are these: for Selectivity index (SI): CD50/ED50, HTLV-IIIB; for EC50: Human immunodeficiency virus 1, MT4, 120 h, MT-4 cells, five days, HTLV-IIIB, read-out: ED50 (50% effective dose). The procedure:
as §1, §2, §3

Data set [2] concerns herpes simplex virus Type I (HSV I). In words: Inhibition of virus replication (plaque assay, BHK-21 cells). The class given is cell-based, Type 1, Troisbel strain. The conditions noted are these: for log reduction at 0.1 µg/mL / log reduction at 0.5 µg/mL / log reduction at 1 µg/mL / log reduction at 5 µg/mL: Human alphaherpesvirus 1, BHK-21, 24 h, read-out: Inhibition of viral replication (log10 reduction in virus titre); for log reduction at 0.1 µg/mL: 0.1 mg/l; for log reduction at 0.5 µg/mL: 0.5 mg/l; for log reduction at 1 µg/mL: 1 mg/l; for log reduction at 5 µg/mL: 5 mg/l. The procedure:
1. Mono-layers of baby hamster kidney cells (BHK-21) are prepared in Petri dishes containing ETC medium (Eagle's minimal essential medium +10% tryptose phosphate broth +10% new born calf serum).
2. After incubation the medium is poured off to leave the layer of cells attached to the Petri dish. A solution containing virus, specifically herpes simplex virus Type I (HSV I) for example, in ETC medium is then added to the dish and incubated with intermittent rocking for one hour to allow the virus to adsorb to the cells of the mono-layer. Unadsorbed virus is then removed by pouring off the virus-containing medium and washing twice with new sterile medium. Then new medium is added to each Petri dish. At this stage various concentrations of drug can be added to the medium.
3. […] First the dishes are frozen to -70° C. and thawed to disrupt the mono-layer and break up the cells. Then the medium and the disrupted cells are transferred to bijou bottles and sonicated to break down the cells completely and to release all the virus particles the cells contain. The sonicated medium is then diluted with fresh sterile ETC medium to give concentrations of the original Petri dish fluid of 10^-2, 10^-4, 10^-6 and 10^-8.
4. The number of virus particles (plaque forming units) in the dilutions is then assayed. A standard number of BHK cells (usually 8×10^6) is added to 2 ml of the diluted solutions and incubated for one hour, with cautious, gentle shaking, and 8 ml of Eagle's minimal essential medium +2% new born calf serum + carboxymethyl cellulose is then added to the cell suspension. This medium has gelling properties which prevent spreading of the virus through the medium and which encourage the formation of discrete plaques in cell mono-layers. The medium from each dilution is then dispensed into Petri dishes and incubated for two to three days.
5. The number of plaques formed is then counted and the amount of active virus expressed as the number of plaque forming units (pfus) as follows. The medium is poured off and the cell mono-layer is fixed using 10% formol saline and stained with dilute carbol fuchsin. The number of plaques in each Petri dish is counted. Based on the dilutions, the number of plaque forming virus particles in the original solutions is calculated.
In the Table, the figures are the concentration of viral particles in pfu/ml present in the cells + medium at the end of the replication stage (3).

Another data set in a line: Absolute solubilities. Type of data set: physicochemical.
Data set [3] has as its system herpes simplex virus Type I (HSV I). The conditions noted are these: herpes zoster and herpes simplex; cited from earlier work.
The next data set has as its system viral polymerases. To be noted: tested lacking the phosphate groups; cited from earlier work.
Setting [4] is: MT-4 cells, five days, LAV-2ROD.
[5] abbreviates: Human alphaherpesvirus 1, 0.5 h, read-out: Inactivation of virus (log10 reduction in virus titre).
[6] abbreviates: chloroform, organic solvent or mixture, CHCl3 98 to 99% pure, with 1% balance ethanol to stabilise, read-out: Absolute solubility in CHCl3.
Where [7] appears, read: in water, read-out: Absolute solubility in water.

As to `CCCCC/C=C\C/C=C\CCCCCCCC(=O)OC[C@H]1O[C@@H]2C[C@H]1Oc1nc(=O)c(C)cn12` [AK 4], the “% in chloroform phase (partition co-efficients, water/chloroform)” value is more than 99%. In the data set on LAV-2ROD, the “Selectivity index (SI)” value was less than 1. Moreover, the EC50 in the data set with LAV-2ROD (setting [4]) is more than 40 µg/mL. Moreover, the CC50 (in general, the concentration giving 50% cytotoxicity) at 120 h in the data set “in vitro” is 18.2 µg/mL (≈ 37.3 µM). Besides, in the data set with MT-4 cells, the “CD50 (50% cytotoxic dose)” value came to 17.4332 µg/mL. The “Virucidal activity / inactivation of herpes virus (in words)” value (“Virucidal activity / inactivation” below) in data set [1] is on record as “virucidal”. In [1] (setting [5]), the log reduction at 1 µg/mL amounted to 2.75 and the log reduction at 5 µg/mL came out at 2.9. Besides, in the data set with HTLV-IIIB, the “Selectivity index (SI)” value is recorded as less than 1 and the EC50 was more than 40 µg/mL. The “Inhibition of viral replication (in words)” value in data set [2] (up to 100 mg/l) is on record as “no inhibition”.

With `CCCCC/C=C\C/C=C\C/C=C\CCCCC(=O)OCCOCn1cnc2c(=O)[nH]c(N)nc21` [AK 5], the “% in chloroform phase (partition co-efficients, water/chloroform)” value was more than 99%. The solubility (in general, how much of the substance goes into solution per volume) in “Absolute solubilities” (setting [6]) was more than 50000 µg/mL. Also, the solubility in the data set “Absolute solubilities” (setting [7]) was 28 µg/mL (≈ 57.7 µM). For the same compound, the “Selectivity index (SI)” value in the data set with LAV-2ROD is listed as less than 1. The EC50 in the data set on LAV-2ROD (setting [4]) was more than 40 µg/mL. This compound came in with a CC50 at 120 h in the data set “in vitro” of 17.2 µg/mL (≈ 35.4 µM). Further, the “CD50 (50% cytotoxic dose)” value in the data set on MT-4 cells worked out at 18.7751 µg/mL. For the same compound, the “Virucidal activity / inactivation” value in [1] was “lacking in this activity”. For the same compound, in data set [1] (up to 50 mg/l), the “Inactivation of virus (in words)” value is recorded as “no inactivation”. For the same compound, in the data set on HTLV-IIIB, the “Selectivity index (SI)” value was less than 1 and the EC50 was more than 40 µg/mL. In data set [2], the log reduction at 0.1 µg/mL is 1 and the log reduction at 0.5 µg/mL worked out at 2.2.

Turning to `CCCCC/C=C\C/C=C\CCCCCCCC(=O)OCCOCn1cnc2c(=O)[nH]c(N)nc21` [AK 6], the “% in chloroform phase (partition co-efficients, water/chloroform)” value was more than 99%. In addition, in “Absolute solubilities” (setting [6]), the solubility is more than 50000 µg/mL. For the same compound, the solubility in “Absolute solubilities” (setting [7]) is 14 µg/mL (≈ 28.7 µM). Further, the “Selectivity index (SI)” value in the data set on LAV-2ROD is less than 1. For the same compound, in the data set on LAV-2ROD (setting [4]), the EC50 was more than 100 µg/mL. For the same compound, the “Virucidal activity / inactivation” value in data set [1] is on record as “lacking in this activity”. The “Inactivation of virus (in words)” value in [1] (up to 50 mg/l) is on record as “no inactivation”. In the data set on HTLV-IIIB, the “Selectivity index (SI)” value is on record as less than 1 and the EC50 was more than 40 µg/mL. For the same compound, in [2], the log reduction at 1 µg/mL stood at 2.4 and the log reduction at 5 µg/mL came to 4.2.

Regarding `Cc1cn2c(nc1=O)O[C@@H]1C[C@H]2O[C@@H]1CO` [AK 8, Anhydrothymidine, reference compound], the “% in chloroform phase (partition co-efficients, water/chloroform)” value is given as 4%. For the same compound, in the data set with LAV-2ROD, the “Selectivity index (SI)” value turned out to be 15. In addition, in the data set on LAV-2ROD (setting [4]), the EC50 was found to be 21.8 µg/mL (≈ 97.2 µM). The “Activity against herpes viruses (in words)” value in [3] is “inactive”. Also, the “Virucidal activity / inactivation” value in [1] is “no effect”. In addition, in [1] (10 mg/l), the “Inactivation of virus (in words)” value was “no inactivation”. In addition, the log reduction at 25 µg/mL in [1] (Human alphaherpesvirus 1, 0.5 h, 25 mg/l, read-out: Inactivation of virus (log10 reduction in virus titre)) worked out at 0.7. Moreover, in the data set with HTLV-IIIB, the “Selectivity index (SI)” value came out at 59 and the EC50 worked out at 13.1 µg/mL (≈ 58.4 µM). Moreover, in [2], the “Inhibition of herpes virus replication (in words)” value is recorded as “no effect”. For the same compound, the “Inhibition of viral replication (in words)” value in data set [2] (concentration not given, Table 7) is “no inhibition”.

For the compound `Nc1nc2c(ncn2COCCO)c(=O)[nH]1` [AK 9, Acyclovir, reference compound], the “% in chloroform phase (partition co-efficients, water/chloroform)” value is recorded as 1%. Also, the solubility in “Absolute solubilities” (setting [6]) came to 6 µg/mL (≈ 26.6 µM). Further, in the data set “Absolute solubilities” (setting [7]), the solubility amounted to 1590 µg/mL (≈ 7060 µM). In addition, in the data set with viral polymerases, the “Activity against viral polymerases (in words)” value was “inactive”. Also, in the data set on LAV-2ROD, the “Selectivity index (SI)” value is given as less than 1 and the EC50 was more than 10000 µg/mL. The compound also came in with a CC50 at 120 h in the data set “in vitro” of 300 µg/mL (≈ 1330 µM). In the data set with MT-4 cells, the “CD50 (50% cytotoxic dose)” value turned out to be 397.5805 µg/mL. Also, the “Inactivation of virus (in words)” value in [1] (up to 50 mg/l) is on record as “no inactivation”. In the data set with HTLV-IIIB, the “Selectivity index (SI)” value is less than 1 and the EC50 was more than 1000 µg/mL. Moreover, in data set [2], the log reduction at 0.1 µg/mL was 2 and the log reduction at 0.5 µg/mL is 2.3.

As for `CCCCC/C=C\C/C=C\CCCCCCCC(=O)Nc1nc2c(ncn2COCCOC(=O)CCCCCCC/C=C\C/C=C\CCCCC)c(=O)[nH]1` [AK 11], the “% in chloroform phase (partition co-efficients, water/chloroform)” value is given as more than 99%. In addition, the “Selectivity index (SI)” value with LAV-2ROD is reported as less than 1. Also, the EC50 in the data set on LAV-2ROD (setting [4]) was more than 40 µg/mL. This compound displayed a CC50 at 120 h in “in vitro” of 13.1 µg/mL (≈ 17.5 µM). Also, in the data set on MT-4 cells, the “CD50 (50% cytotoxic dose)” value turned out to be 10.1674 µg/mL. For the same compound, the “Virucidal activity / inactivation” value in data set [1] was “virucidal; also recorded: very effective”. Also, in [1] (setting [5]), the log reduction at 1 µg/mL is 0.15 and the log reduction at 5 µg/mL was determined as 1.55. For the same compound, in the data set on HTLV-IIIB, the “Selectivity index (SI)” value was less than 1 and the EC50 was more than 40 µg/mL. Besides, in data set [2], the “Inhibition of herpes virus replication (in words)” value is “very effective”, the log reduction at 1 µg/mL came out at 1.69 and the log reduction at 5 µg/mL was 2.46.

The values above are taken from US5216142A, “Anti-virals” (Efamol Holdings plc, priority 1989, dated 1993).
